{"source": "patent US11464802B2", "about": "“3-substituted piperidine compounds for Cbl-b inhibition, and use thereof” (Nurix Therapeutics, Inc., priority 2019, dated 2022)", "key": {"[1]": {"tested_on": "primary human total T-cells", "assay": "Primary human total T-cell activation: CD25 surface staining, Biological Example 2", "assay_type": "cell-based", "conditions": "48 hours, fold change over baseline; for fold induction at 1 µM: inhibitor 1 μM"}, "[2]": {"tested_on": "primary human total T-cells", "assay": "Primary human total T-cell activation: IL-2 secretion, Biological Example 9", "assay_type": "cell-based", "conditions": "48 hours, fold change over baseline; for fold induction at 1 µM: inhibitor 1 μM"}}, "data": [{"compound": "C[C@@H]1CN(Cc2cc3c(c(C(F)(F)F)c2)CN(c2cccc(C4(Cc5nncn5C)COC4)c2)C3=O)CCC1(F)F", "note": "[Compound 8, (R)-6-((4,4-difluoro-3-methylpiperidin-1-yl)methyl)-2-(3-(3-((4-methyl-4H-1,2,4-triazol-3-yl)methyl)oxetan-3-yl)phenyl)-4-(trifluoromethyl)isoindolin-1-one]", "values": [{"measurement": "fold induction at 0.3 µM", "setting": "[1]; anti-CD3/anti-CD28 co-stimulation, inhibitor 0.3 μM", "result": "1.25 to 1.39"}, {"measurement": "fold induction at 1 µM", "setting": "[1]; anti-CD3/anti-CD28 co-stimulation, read-out: CD25 staining CD3/CD28 1 μM", "result": "1.25 to 1.39"}, {"measurement": "fold induction at 1 µM", "setting": "[1]; anti-CD3 alone, read-out: CD25 staining CD3 1 μM", "result": "> 1.14"}, {"measurement": "fold induction at 3 µM", "setting": "[1]; anti-CD3 alone, inhibitor 3 μM", "result": "> 1.14"}, {"measurement": "fold induction at 0.3 µM", "setting": "[2]; anti-CD3/anti-CD28 co-stimulation, inhibitor 0.3 μM, Table 9-1", "result": "> 15"}, {"measurement": "fold induction at 1 µM", "setting": "[2]; anti-CD3/anti-CD28 co-stimulation, Table 9-1, read-out: IL-2 secretion CD3/CD28 1 μM", "result": "> 15"}, {"measurement": "fold induction at 1 µM", "setting": "[2]; anti-CD3 alone, Table 9-1, read-out: IL-2 secretion CD3 1 μM", "result": "> 0.66"}, {"measurement": "fold induction at 3 µM", "setting": "[2]; anti-CD3 alone, inhibitor 3 μM, Table 9-1", "result": "> 0.66"}]}]}
